# Experimental data reported in patent US7883859B2, “Method for producing active and stable acetylcholinesterase bioassay element” (priority 2005, dated 2011).
# Assays:
# acetylcholinesterase [1] = test: Color change of the bioassay element against pesticides, judged by human eyes (FIG. 6); assay type: biochemical; conditions: color changes from yellow to yellowish
# From the text: (§1) The bioassay element of the present invention is referred to FIG. 1 which illustrates the structure of bioassay element in one embodiment of the present invention. The bioassay element includes a carrier 100, an enzyme 110 as a testing material, and a coating film 120. The carrier includes a membrane 101 and a stationary layer 102 applying on the membrane 101. The enzyme 110 is dispersed in the coating film 120 that covers on the surface of the stationary layer 102. The coating film 120 effectively increases the amount of the immobilized enzyme 110 and raises the activity of the enzyme 110 and fixes the enzyme 110 on the surface of the carrier. In the working example of the present invention, the enzyme acetylcholinesterase is selected, and the coating film 120 consists of casein, calcium ions, a color developer (DTNB), and trehalose. The stationary layer 102 consists of casein and calcium ions.
# If the inhibition of the enzyme activity is greater than 60%, the color will become colorless. To discriminate the color change by human eyes, the concentrations of trichlorfon and carbaryl are about 3 ppm, malathion and naled are about 1 ppm, carbafuran is about 0.1 ppm.
# acetylcholinesterase [2] = test: Inhibition of the immobilized enzyme of the bioassay element by pesticides (FIG. 5); assay type: biochemical; conditions: for detection sensitivity of the bioassay element (rank among five pesticides; carbofuran>naled>malathion>carbaryl=trichlorfon): at any same concentration
# From the text: as §1
# In the working example of the present invention, the stationary-layer mixed solution was prepared by mixing 120 mM of a calcium ion solution and 2.5% of a casein solution in a ratio of 1:14 by volume. The bioassay solution was prepared by mixing an enzyme solution and the mixed solution containing casein in a ratio of 5:7 by volume. The enzyme solution was prepared by mixing 1.52 U/μl of an enzyme and 5% of trehalose in a ratio of 2.61:108 by volume. The mixed solution containing casein was mixed with a color developer, 120 mM of a calcium ion solution and 4% of a casein solution in a ratio of (0.009 to 0.012):1:(6 to 7.75) (w/v/v).
# The results of the inhibiting effect of several pesticides (with different concentrations) on the bioassay element of the present invention are referred to FIG. 5. […] At the same concentration, the higher inhibition represents that the enzyme has higher detection sensitivity to pesticide. […] Within the linear relationship between the concentration of each pesticide and the inhibition of the enzyme, a biosensor capable of quantitatively detecting pesticides in association with optical sensors can be designed.
# Therefore, if the inhibition of the enzyme activity is greater than 30%, it should be very easy to distinguish the yellow-color level difference by human eyes. In addition, when the concentration of naled was greater than 3.5 ppm and the concentrations of malathion, trichlorfon and carbaryl were greater than 7 ppm, the inhibition of the enzyme activity would be greater than 60%. Thus, the color would become colorless.
SMILES,concentration to discriminate the color change by human eyes (acetylcholinesterase [1]),concentration dependence of inhibition of the enzyme activity (acetylcholinesterase [2]),detection sensitivity of the bioassay element (rank among five pesticides; carbofuran>naled>malathion>carbaryl=trichlorfon) (acetylcholinesterase [2]),inhibition of the enzyme activity (acetylcholinesterase [2]; pesticide concentration 3 ppm),concentration range with linear relationship between pesticide concentration and inhibition of the enzyme activity (acetylcholinesterase [2]) [ppm],pesticide concentration above which the increase of inhibition is plateau (acetylcholinesterase [2]),inhibition of the enzyme activity (acetylcholinesterase [2]; pesticide concentration about 0.1 ppm) [%],inhibition of the enzyme activity (acetylcholinesterase [2]; pesticide concentration 1 ppm) [%]
CNC(=O)Oc1cccc2ccccc12 [carbaryl],about 3 ppm,increased with increasing concentrations,lowest,about 28%,,,,
CNC(=O)Oc1cccc2c1OC(C)(C)C2 [carbofuran],about 0.1 ppm,,highest,,0 to 0.1,greater than 0.1 ppm,65,
CCOC(=O)CC(SP(=S)(OC)OC)C(=O)OCC (stereo not shown) [malathion],about 1 ppm,,next,,,,,28
COP(=O)(OC)OC(Br)C(Cl)(Cl)Br (stereo not shown) [naled],about 1 ppm,,next,,,,,39
COP(=O)(OC)C(O)C(Cl)(Cl)Cl (stereo not shown) [trichlorfon],about 3 ppm,increased with increasing concentrations,lowest,about 28%,,,,
